Here are results for 11 molecules from ChEMBL document CHEMBL4346725, “Molecular design and anticancer activities of small-molecule monopolar spindle 1 inhibitors: A Medicinal chemistry perspective” (Eur J Med Chem, 2019).

pIC50, pKi: −log10 of the molar value.

For one data set, the system named is MDA-MB-231. The experiment in a line: Antiproliferative activity against human MDA-MB-231 cells after 7 days by cell titer-glo assay. Type of data set: functional, cell-based. Conditions: MDA-MB-231, 168 h. (In general: ATP-based viability assays read luminescence as a measure of living cells.)
Data set [1] addresses T1, Dual specificity protein kinase TTK (Homo sapiens, UniProt P33981).
T1 sequence (P33981 whole entry): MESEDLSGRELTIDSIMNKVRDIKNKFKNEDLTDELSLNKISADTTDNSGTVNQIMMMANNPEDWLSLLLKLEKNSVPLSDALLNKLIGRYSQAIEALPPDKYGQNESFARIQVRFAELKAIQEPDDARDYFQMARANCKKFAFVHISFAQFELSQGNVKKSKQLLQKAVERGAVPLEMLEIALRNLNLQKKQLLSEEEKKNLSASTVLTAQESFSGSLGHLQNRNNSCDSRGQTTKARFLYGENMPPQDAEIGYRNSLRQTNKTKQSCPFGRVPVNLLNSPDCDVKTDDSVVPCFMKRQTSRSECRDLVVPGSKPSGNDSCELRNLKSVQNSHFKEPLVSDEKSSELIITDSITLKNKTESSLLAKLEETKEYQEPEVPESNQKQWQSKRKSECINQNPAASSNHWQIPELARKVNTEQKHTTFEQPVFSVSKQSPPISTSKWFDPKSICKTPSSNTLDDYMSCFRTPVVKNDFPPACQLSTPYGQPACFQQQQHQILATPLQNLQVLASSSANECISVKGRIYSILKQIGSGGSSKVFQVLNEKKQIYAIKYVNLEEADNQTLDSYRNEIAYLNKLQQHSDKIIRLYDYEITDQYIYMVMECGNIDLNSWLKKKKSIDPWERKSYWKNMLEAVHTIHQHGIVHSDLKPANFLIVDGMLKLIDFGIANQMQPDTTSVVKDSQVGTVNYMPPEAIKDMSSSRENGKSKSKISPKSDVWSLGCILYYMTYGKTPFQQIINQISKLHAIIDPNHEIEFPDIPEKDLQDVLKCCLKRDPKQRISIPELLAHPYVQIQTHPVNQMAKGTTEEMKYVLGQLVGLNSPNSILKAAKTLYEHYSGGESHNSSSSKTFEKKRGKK
Put plainly: Inhibition of MPS1 (510 to 857 residues) catalytic domain (unknown origin) expressed in Escherichia coli after 15 mins by mass-spectrometry analysis.

Another data set relates to A549. The experiment in a line: animal or person. Conditions: Mus musculus, A549, po, read-out: TGI.
Data set [2] addresses T1, Dual specificity protein kinase TTK. The experiment in a line: Inhibition of glioblastoma patient derived MPS1.
The next data set can be described thus: in vivo. The conditions noted are these: mouse, ip, 150 mg/kg.
Data set [3] has as its system HCT-116. Put plainly: animal or person. Conditions: Mus musculus, HCT-116, ip, 96 h, read-out: TGI.
The test system of data set [4] is HCT-116. The experiment in a line: animal or person. The conditions noted are these: Mus musculus, HCT-116, ip, read-out: TGI.
For a further data set, the system named is COLO 205. The experiment in a line: animal or person. The conditions noted are these: Mus musculus, COLO 205, ip, 96 h, read-out: TGI.
Data set [5] has as its target T1, Dual specificity protein kinase TTK. The experiment in a line: Inhibition of MPS1 (unknown origin).
The target in data set [6] is Mitogen-activated protein kinase 9 (Homo sapiens) (UniProt P45984). Put plainly: Inhibition of JNK2 (unknown origin) relative to control. The conditions noted are these: concentration not given here.
Sequence of Mitogen-activated protein kinase 9 (Homo sapiens) (P45984 whole entry, looked up): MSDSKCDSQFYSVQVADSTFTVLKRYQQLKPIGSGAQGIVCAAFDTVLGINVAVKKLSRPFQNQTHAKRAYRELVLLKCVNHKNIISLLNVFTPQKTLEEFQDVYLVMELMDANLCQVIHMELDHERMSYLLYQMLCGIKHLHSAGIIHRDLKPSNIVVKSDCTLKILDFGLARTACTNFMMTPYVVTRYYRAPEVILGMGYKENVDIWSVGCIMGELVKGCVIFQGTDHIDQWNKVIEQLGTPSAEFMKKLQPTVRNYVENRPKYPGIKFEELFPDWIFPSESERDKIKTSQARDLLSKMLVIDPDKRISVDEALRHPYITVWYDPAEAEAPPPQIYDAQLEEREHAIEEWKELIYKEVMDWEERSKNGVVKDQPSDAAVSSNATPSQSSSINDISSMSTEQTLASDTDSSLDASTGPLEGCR
In data set [7] the target is Focal adhesion kinase 1 (Homo sapiens) (UniProt Q05397). Put plainly: Inhibition of FAK (unknown origin) relative to control. The conditions noted are these: concentration not given here.
Sequence of Focal adhesion kinase 1 (Homo sapiens) (Q05397 2-1052 limits assumed): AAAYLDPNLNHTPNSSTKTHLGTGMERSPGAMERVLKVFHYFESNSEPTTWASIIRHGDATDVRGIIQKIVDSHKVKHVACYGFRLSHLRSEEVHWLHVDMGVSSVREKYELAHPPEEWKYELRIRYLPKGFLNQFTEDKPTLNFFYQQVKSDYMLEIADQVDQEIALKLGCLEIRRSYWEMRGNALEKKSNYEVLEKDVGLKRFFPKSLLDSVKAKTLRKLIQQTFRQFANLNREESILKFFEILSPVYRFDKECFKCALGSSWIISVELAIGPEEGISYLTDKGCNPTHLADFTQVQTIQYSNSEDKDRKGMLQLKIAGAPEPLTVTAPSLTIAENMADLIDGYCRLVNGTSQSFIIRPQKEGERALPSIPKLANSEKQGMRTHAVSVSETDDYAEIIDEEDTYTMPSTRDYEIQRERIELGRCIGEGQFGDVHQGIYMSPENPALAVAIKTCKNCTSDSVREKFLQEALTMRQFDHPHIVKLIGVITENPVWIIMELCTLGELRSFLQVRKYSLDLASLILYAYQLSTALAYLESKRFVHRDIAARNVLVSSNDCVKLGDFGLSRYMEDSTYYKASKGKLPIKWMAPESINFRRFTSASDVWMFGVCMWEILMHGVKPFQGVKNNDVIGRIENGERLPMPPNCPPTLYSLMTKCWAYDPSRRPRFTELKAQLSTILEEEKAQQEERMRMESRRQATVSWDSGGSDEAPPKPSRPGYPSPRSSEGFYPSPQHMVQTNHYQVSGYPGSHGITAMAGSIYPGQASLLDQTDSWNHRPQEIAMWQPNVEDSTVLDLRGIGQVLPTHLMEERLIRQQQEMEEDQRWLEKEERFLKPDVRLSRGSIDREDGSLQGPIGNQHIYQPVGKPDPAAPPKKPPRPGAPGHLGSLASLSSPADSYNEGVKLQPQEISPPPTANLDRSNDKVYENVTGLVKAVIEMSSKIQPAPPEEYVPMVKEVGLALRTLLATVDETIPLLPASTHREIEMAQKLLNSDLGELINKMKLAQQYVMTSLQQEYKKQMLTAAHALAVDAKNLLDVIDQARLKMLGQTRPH
Data set [8] has as its target Mast/stem cell growth factor receptor Kit (Homo sapiens) (UniProt P10721). Put plainly: Inhibition of KIT (unknown origin) relative to control. Conditions: concentration not given here.
Data set [9] deals with Mitogen-activated protein kinase 8 (Homo sapiens) (UniProt P45983). Put plainly: Inhibition of JNK1 (unknown origin) relative to control. The conditions noted are these: concentration not given here.
Sequence of Mitogen-activated protein kinase 8 (Homo sapiens) (P45983 whole entry): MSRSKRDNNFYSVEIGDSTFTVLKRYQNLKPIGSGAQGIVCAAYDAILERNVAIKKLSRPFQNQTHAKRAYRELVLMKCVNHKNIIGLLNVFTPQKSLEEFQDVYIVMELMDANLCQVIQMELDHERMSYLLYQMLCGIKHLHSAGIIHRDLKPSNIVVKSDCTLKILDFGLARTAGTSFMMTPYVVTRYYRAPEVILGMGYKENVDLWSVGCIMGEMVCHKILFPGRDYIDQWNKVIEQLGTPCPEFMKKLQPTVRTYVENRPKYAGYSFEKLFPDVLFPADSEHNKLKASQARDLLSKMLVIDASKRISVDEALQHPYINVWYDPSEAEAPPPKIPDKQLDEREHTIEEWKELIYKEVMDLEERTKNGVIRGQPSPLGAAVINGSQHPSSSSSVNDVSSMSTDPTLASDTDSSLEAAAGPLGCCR
Data set [10] is described as follows: Half life in mouse xenografted with human A2780 cells at 90 mg/kg, po daily administered for 7 consecutive days. The conditions noted are these: in vivo. Type of data set: ADME, organism-based.
In the next data set the test system is A2780. The experiment in a line: Antitumor activity against human A2780 cells xenografted in mouse assessed as tumor growth inhibition at 90 mg/kg, po daily administered for 7 consecutive days relative to control. Type of data set: functional. The conditions noted are these: read-out: TGI. For orientation: Xenograft models place foreign cells or tissue in a host animal.

A short description of data set [11]: Oral bioavailability in mouse xenografted with human A2780 cells at 90 mg/kg daily administered for 7 consecutive days. Type of data set: ADME, organism-based. The conditions noted are these: in vivo.
Data set [12] can be described thus: Oral bioavailability in mouse at 5 mg/kg. Type of data set: ADME, organism-based. Conditions: in vivo.
Data set [13] is described as follows: Half life in mouse at 5 mg/kg, ip. Type of data set: ADME, organism-based. The conditions noted are these: in vivo.
Data set [14] in a line: Cmax in mouse at 5 mg/kg, po. Type of data set: ADME, organism-based. Also noted: dose 5 mg/kg, route oral. The conditions noted are these: in vivo.
A short description of data set [15]: Half life in mouse at 5 mg/kg, po. Type of data set: ADME, organism-based. The conditions noted are these: in vivo.
Data set [16] is described as follows: Bioavailability in mouse at 5 mg/kg, ip. Type of data set: ADME, organism-based. The conditions noted are these: in vivo.
Data set [17] is described as follows: Cmax in mouse at 5 mg/kg, ip. Type of data set: ADME, organism-based. More on the design: dose 5 mg/kg, route intraperitoneal. The conditions noted are these: in vivo.
Data set [18] can be described thus: Half life in mouse at 5 mg/kg, iv. Type of data set: ADME, organism-based. Conditions: in vivo.
Data set [19] in a line: Cmax in mouse at 5 mg/kg, iv. Type of data set: ADME, organism-based. Also noted: dose 5 mg/kg, route intravenous. The conditions noted are these: in vivo.
In a further data set the test system is Mus musculus. The experiment in a line: In vivo inhibition of MPS1 in mouse xenografted with human HCT116 cells at 100 mg/kg, po after 24 hrs by LC-MS analysis relative to control. Type of data set: functional. Conditions: HCT-116, po.

Sequence of Mast/stem cell growth factor receptor Kit (Homo sapiens) (P10721 whole entry): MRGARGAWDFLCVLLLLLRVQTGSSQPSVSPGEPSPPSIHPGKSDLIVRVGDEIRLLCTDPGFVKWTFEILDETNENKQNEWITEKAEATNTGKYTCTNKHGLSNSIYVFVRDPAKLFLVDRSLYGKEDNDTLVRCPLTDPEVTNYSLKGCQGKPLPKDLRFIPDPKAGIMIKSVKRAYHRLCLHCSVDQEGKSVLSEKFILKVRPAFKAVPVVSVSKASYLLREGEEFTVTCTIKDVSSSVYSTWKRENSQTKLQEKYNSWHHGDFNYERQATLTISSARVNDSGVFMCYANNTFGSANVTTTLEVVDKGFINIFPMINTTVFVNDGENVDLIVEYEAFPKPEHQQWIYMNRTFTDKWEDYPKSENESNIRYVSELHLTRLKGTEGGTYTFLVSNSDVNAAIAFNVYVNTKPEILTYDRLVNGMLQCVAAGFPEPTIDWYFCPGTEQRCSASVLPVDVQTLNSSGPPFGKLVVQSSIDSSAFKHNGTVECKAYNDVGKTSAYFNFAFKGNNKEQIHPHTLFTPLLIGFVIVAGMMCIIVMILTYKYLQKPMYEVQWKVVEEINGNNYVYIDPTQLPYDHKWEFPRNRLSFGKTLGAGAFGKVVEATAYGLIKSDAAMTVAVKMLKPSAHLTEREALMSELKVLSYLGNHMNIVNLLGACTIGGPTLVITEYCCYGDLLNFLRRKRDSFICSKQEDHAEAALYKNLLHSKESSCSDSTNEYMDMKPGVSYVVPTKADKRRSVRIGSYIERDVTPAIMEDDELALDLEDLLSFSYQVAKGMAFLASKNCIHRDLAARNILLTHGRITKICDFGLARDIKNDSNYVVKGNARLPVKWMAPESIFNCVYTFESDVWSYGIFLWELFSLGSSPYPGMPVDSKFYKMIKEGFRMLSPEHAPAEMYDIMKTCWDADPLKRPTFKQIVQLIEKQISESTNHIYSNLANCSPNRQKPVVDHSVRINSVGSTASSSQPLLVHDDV

As for `Cc1nc(N2CCOCC2)ccc1Nc1nc(NC2CCOCC2)c2c(C#N)c[nH]c2n1`, the pIC50 in the data set on MDA-MB-231 was 8.22 to 8.70. In data set [1], the pIC50 was 8.60 and the pKi was more than 9.30.
With `CC(C)(C)Nc1nc(Nc2ccc(C(N)=O)cc2)cc(N)c1C#N`, the inhibition in vivo at 100 mg/kg in the data set with A549 amounted to 47%.
`COc1cc(N2CCC(O)CC2)ccc1Nc1nc(Nc2ccccc2S(=O)(=O)C(C)C)c2nc[nH]c2n1` gave a pIC50 in data set [2] of 7.30.
In the data set “in vivo”, `c1nc2nc(Nc3ccc(N4CCOCC4)cc3)nc(NC3CCCCC3)c2[nH]1` [REVERSINE] yielded an AUC at 96 h of 0.786 ng·h/mL. For the same molecule, the inhibition in vivo at 150 mg/kg turned out to be 74% in the data set with HCT-116 [3] and 63% with COLO 205. In the data set with HCT-116 [4], the inhibition in vivo at 30 mg/kg was 49%.
Turning to `CC(C)CNc1nc(-c2cccc3ncccc23)cn2c(-c3ccc(C(=O)NC4CC4)cc3)cnc12`, in [5], the pIC50 is 8.05.
As to `COc1cc(OC2CCN(C)CC2)ccc1Nc1ncc2c(n1)n(C1CCCC1)c(=O)n2C`, the inhibition in data set [6], in data set [7], in data set [8] and in data set [9] was more than 40% throughout.
The molecule `CCc1cccc(CC)c1NC(=O)c1nn(C)c2c1CCc1cnc(Nc3ccc(C(=O)NC4CCN(C)CC4)cc3OC(F)(F)F)nc1-2` showed a half-life in data set [10] of 8 h. Further, the inhibition in vivo at 90 mg/kg with A2780 came to 53%. In [11], this molecule had a bioavailability of 37.9%.
`Cc1nc(N2CCOCC2)ccc1Nc1nc(NC(C)(C)CO)c2c(C#N)c[nH]c2n1`: in data set [1], the pIC50 was 8.26 and the pKi was more than 9.30.
`CCc1cccc(CC)c1NC(=O)c1ccn2c1CCc1cnc(Nc3ccc(N4CCN(C)CC4)cc3OC)nc1-2`: the bioavailability in data set [12] stood at 45.2%; in data set [16], 90.3%. For the same molecule, the half-life in [13] was 3.4 h; in data set [15], 3.9 h; in [18] it was 2.9 h. The figures for the Cmax in data set [14], in data set [17] and in data set [19] were 188 nM, 629 nM and 3060 nM, respectively.
In the case of `COc1cc(-c2cnn(C)c2)ccc1Nc1ncc2ccnc(N[C@@H](C)C(C)(C)C)c2n1`, the inhibition in vivo at 100 mg/kg in the data set with Mus musculus is more than 80%.
Molecule `O=C1c2ccccc2-c2n[nH]c3cccc1c23` showed a negative logarithm of the IC50 (pIC50) in data set [5] of 7.01.

As usually defined, the pIC50 is the IC50 on a negative log10 scale, so that one unit is a factor of ten. The low end stands for a high IC50, the high end for a low IC50. In general, pKi refers to the Ki on a negative log10 scale, so that one unit is a factor of ten. The low end stands for a high Ki, the high end for a low Ki. A word on the AUC: it is concentration integrated over time. A lower AUC goes with less exposure. One may read the inhibition as the drop in the measured response relative to a control, in per cent. Read a high inhibition as a strong effect. The term half-life denotes the time needed for the level to fall by half in the phase considered. Lower therefore signals rapid decline. For orientation: bioavailability means dose-corrected exposure relative to a reference, in per cent. The low end stands for little systemic uptake, the high end for much systemic uptake. The term Cmax denotes the maximum level reached in the sampled fluid or tissue.
